The values below are quoted from earlier work in patent US6596884B2, “Synthesis of hydrogen peroxide” (University of Pittsburgh, priority 1998, dated 2003).

Structures are written as SMILES.

For this series the following is noted: obtained by extrapolation of the data from Santacesaria et al., Ind. Eng. Chem. Res., 1994, 33, 277.

Consider `CCc1ccc2c(c1)C(=O)c1ccccc1C2=O` [Entry 2-EtAQ], for which the kc was 0.47^(3) cm^3/(g s).
